From article PMC4893628, “Chalcone-based Selective Inhibitors of a C4 Plant Key Enzyme as Novel Potential Herbicides” (Scientific Reports, 2016)
Read-outs that look alike come from different tables or passages of the source.

Legend:
[1] = target: T1, F. trinervia PEPC (Flaveria trinervia, UniProt P30694); assay: biochemical; format: biochemical
T1 construct: the full-length ppcA gene of PEPC from F. trinervia (EMBL-Bank X61304); made in house; host or cells: Escherichia coli BL21(DE3)
T1 sequence (P30694 1-966): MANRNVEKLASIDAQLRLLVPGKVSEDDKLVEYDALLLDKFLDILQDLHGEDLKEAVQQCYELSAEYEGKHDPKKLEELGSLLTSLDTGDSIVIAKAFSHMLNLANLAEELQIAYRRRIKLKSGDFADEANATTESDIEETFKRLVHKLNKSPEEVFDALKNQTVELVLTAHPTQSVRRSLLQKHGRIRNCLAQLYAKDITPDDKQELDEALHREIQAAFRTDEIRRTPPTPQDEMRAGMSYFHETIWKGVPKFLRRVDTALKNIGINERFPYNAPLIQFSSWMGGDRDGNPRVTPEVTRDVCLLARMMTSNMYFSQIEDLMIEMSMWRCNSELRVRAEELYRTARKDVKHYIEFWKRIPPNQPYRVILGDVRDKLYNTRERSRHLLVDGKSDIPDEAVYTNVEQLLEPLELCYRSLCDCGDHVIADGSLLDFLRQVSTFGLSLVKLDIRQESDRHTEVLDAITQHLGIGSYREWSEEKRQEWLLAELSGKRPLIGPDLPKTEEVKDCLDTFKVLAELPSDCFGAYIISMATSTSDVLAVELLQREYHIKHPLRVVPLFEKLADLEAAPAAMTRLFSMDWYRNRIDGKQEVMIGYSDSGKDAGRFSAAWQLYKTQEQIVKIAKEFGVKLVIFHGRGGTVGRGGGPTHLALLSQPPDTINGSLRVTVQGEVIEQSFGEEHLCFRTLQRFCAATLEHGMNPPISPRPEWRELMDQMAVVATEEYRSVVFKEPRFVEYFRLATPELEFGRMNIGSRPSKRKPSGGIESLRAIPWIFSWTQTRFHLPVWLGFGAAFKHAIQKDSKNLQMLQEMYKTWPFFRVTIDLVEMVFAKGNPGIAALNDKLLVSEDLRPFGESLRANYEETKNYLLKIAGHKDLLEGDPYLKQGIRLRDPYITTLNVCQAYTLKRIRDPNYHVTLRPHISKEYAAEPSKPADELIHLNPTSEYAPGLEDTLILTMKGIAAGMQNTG

[2] = system: Escherichia coli K-12 MG1655; assay: Bacterial growth in microscale cultivation, E. coli; format: cell-based; conditions: relative to control; for activity at 0.3 µM / activity at 3 µM / activity at 30 µM: Escherichia coli
In short: (§1)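 In a BioLector microscale system shaken at 1200 rpm, growth was tracked by backscatter at 620 nm, and final signal, growth rate (h⁻¹) and lag-phase length were scored against DMSO-only controls. Starting OD600 was 0.5, or 0.25 for B. subtilis. Inhibitors came from DMSO stocks, with trans-chalcone capped at 400 μM and 2'-hydroxychalcone at 100 μM.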

[3] = system: Pseudomonas putida KT2440; assay: Bacterial growth in microscale cultivation, P. putida; format: cell-based; conditions: relative to control; for activity at 0.3 µM / activity at 3 µM / activity at 30 µM: Pseudomonas putida
In short: as §1

[4] = system: Bacillus subtilis 168; assay: Bacterial growth in microscale cultivation, B. subtilis; format: cell-based; conditions: relative to control
In short: as §1

Question: For `O=C(/C=C/c1cc(O)c(O)c(O)c1)c1ccc(O)cc1O` [Compound 9, 2′,4′,3,4,5-Pentahydroxychalcone], which “Selectivity C4/C3” value ([1]; C4 PEPC over C3 isoform) is on record?
Answer: 8.1 fold

Question: What about the IC50 ([1]; C4 PEPC, read-out: IC50 F. trinervia PEPC) of the same compound?
Answer: 4.2 ± 1.4 µM

Question: And the activity at 0.3 µM ([2]; MG1655, complex medium, 0.3 µM, read-out: Final Backscatter)?
Answer: 100%

Question: What about the activity at 0.3 µM ([2]; MG1655, complex medium, 0.3 µM, read-out: Growth rate) of the same compound?
Answer: 103%

Question: And the activity at 3 µM ([2]; MG1655, complex medium, 3 µM, read-out: Final Backscatter)?
Answer: 99.7%

Question: And the activity at 3 µM ([2]; MG1655, complex medium, 3 µM, read-out: Growth rate)?
Answer: 95.4%

Question: And the activity at 30 µM ([2]; MG1655, complex medium, 30 µM, read-out: Final Backscatter)?
Answer: 98.2%

Question: What about the activity at 30 µM ([2]; MG1655, complex medium, 30 µM, read-out: Growth rate) of the same compound?
Answer: 87.6%

Question: What about the activity at 0.3 µM ([2]; MG1655, minimal medium, 0.3 µM, read-out: Final Backscatter) of the same compound?
Answer: 100%

Question: What about the activity at 0.3 µM ([2]; MG1655, minimal medium, 0.3 µM, read-out: Growth rate) of the same compound?
Answer: 106%

Question: What about the activity at 3 µM ([2]; MG1655, minimal medium, 3 µM, read-out: Final Backscatter) of the same compound?
Answer: 101%

Question: What about the activity at 3 µM ([2]; MG1655, minimal medium, 3 µM, read-out: Growth rate) of the same compound?
Answer: 110%

Question: And the activity at 30 µM ([2]; MG1655, minimal medium, 30 µM, read-out: Final Backscatter)?
Answer: 102%

Question: And the activity at 30 µM ([2]; MG1655, minimal medium, 30 µM, read-out: Growth rate)?
Answer: 110%

Question: And the “Lag Phase” value ([2]; complex medium, 0.3 µM)?
Answer: 103,4%

Question: And the “Lag Phase” value ([2]; complex medium, 3 µM)?
Answer: 103,4%

Question: What about the “Lag Phase” value ([2]; complex medium, 30 µM) of the same compound?
Answer: 110,3%

Question: What about the “Lag Phase” value ([2]; minimal medium, 0.3 µM) of the same compound?
Answer: 100,0%

Question: And the “Lag Phase” value ([2]; minimal medium, 3 µM)?
Answer: 98,2%

Question: And the “Lag Phase” value ([2]; minimal medium, 30 µM)?
Answer: 96,4%

Question: And the activity at 0.3 µM ([3]; KT2440, complex medium, 0.3 µM, read-out: Final Backscatter)?
Answer: 94.7%

Question: And the activity at 0.3 µM ([3]; KT2440, complex medium, 0.3 µM, read-out: Growth rate)?
Answer: 99.4%

Question: What about the activity at 3 µM ([3]; KT2440, complex medium, 3 µM, read-out: Final Backscatter) of the same compound?
Answer: 96.9%

Question: And the activity at 3 µM ([3]; KT2440, complex medium, 3 µM, read-out: Growth rate)?
Answer: 101%

Question: What about the activity at 30 µM ([3]; KT2440, complex medium, 30 µM, read-out: Final Backscatter) of the same compound?
Answer: 93%

Question: What about the activity at 30 µM ([3]; KT2440, complex medium, 30 µM, read-out: Growth rate) of the same compound?
Answer: 102%

Question: And the activity at 0.3 µM ([3]; KT2440, minimal medium, 0.3 µM, read-out: Final Backscatter)?
Answer: 93.1%

Question: What about the activity at 0.3 µM ([3]; KT2440, minimal medium, 0.3 µM, read-out: Growth rate) of the same compound?
Answer: 109%

Question: And the activity at 3 µM ([3]; KT2440, minimal medium, 3 µM, read-out: Final Backscatter)?
Answer: 96.5%

Question: What about the activity at 3 µM ([3]; KT2440, minimal medium, 3 µM, read-out: Growth rate) of the same compound?
Answer: 108%

Question: And the activity at 30 µM ([3]; KT2440, minimal medium, 30 µM, read-out: Final Backscatter)?
Answer: 98.3%

Question: What about the activity at 30 µM ([3]; KT2440, minimal medium, 30 µM, read-out: Growth rate) of the same compound?
Answer: 108%

Question: And the “Lag Phase” value ([3]; complex medium, 0.3 µM)?
Answer: 101,2%

Question: And the “Lag Phase” value ([3]; complex medium, 3 µM)?
Answer: 102,4%

Question: What about the “Lag Phase” value ([3]; complex medium, 30 µM) of the same compound?
Answer: 99,4%

Question: And the “Lag Phase” value ([3]; minimal medium, 0.3 µM)?
Answer: 99,0%

Question: What about the “Lag Phase” value ([3]; minimal medium, 3 µM) of the same compound?
Answer: 99,3%

Question: And the “Lag Phase” value ([3]; minimal medium, 30 µM)?
Answer: 99,7%

Question: What about the activity at 0.3 µM ([4]; Bacillus subtilis, 168, complex medium, 0.3 µM, read-out: Final Backscatter) of the same compound?
Answer: 100%

Question: What about the activity at 0.3 µM ([4]; Bacillus subtilis, 168, complex medium, 0.3 µM, read-out: Growth rate) of the same compound?
Answer: 111%

Question: And the activity at 3 µM ([4]; Bacillus subtilis, 168, complex medium, 3 µM, read-out: Final Backscatter)?
Answer: 99.7%

Question: And the activity at 3 µM ([4]; Bacillus subtilis, 168, complex medium, 3 µM, read-out: Growth rate)?
Answer: 112%

Question: And the activity at 30 µM ([4]; Bacillus subtilis, 168, complex medium, 30 µM, read-out: Final Backscatter)?
Answer: 98.6%

Question: And the activity at 30 µM ([4]; Bacillus subtilis, 168, complex medium, 30 µM, read-out: Growth rate)?
Answer: 104%

Question: And the activity at 0.3 µM ([4]; Bacillus subtilis, 168, minimal medium, 0.3 µM, read-out: Final Backscatter)?
Answer: 104%

Question: And the activity at 0.3 µM ([4]; Bacillus subtilis, 168, minimal medium, 0.3 µM, read-out: Growth rate)?
Answer: 99.6%

Question: And the activity at 3 µM ([4]; Bacillus subtilis, 168, minimal medium, 3 µM, read-out: Final Backscatter)?
Answer: 103%

Question: What about the activity at 3 µM ([4]; Bacillus subtilis, 168, minimal medium, 3 µM, read-out: Growth rate) of the same compound?
Answer: 101%

Question: And the activity at 30 µM ([4]; Bacillus subtilis, 168, minimal medium, 30 µM, read-out: Final Backscatter)?
Answer: 107%

Question: What about the activity at 30 µM ([4]; Bacillus subtilis, 168, minimal medium, 30 µM, read-out: Growth rate) of the same compound?
Answer: 90.7%

Question: And the “Lag Phase” value ([4]; complex medium, 0.3 µM)?
Answer: 100,0%

Question: And the “Lag Phase” value ([4]; complex medium, 3 µM)?
Answer: 100,0%

Question: What about the “Lag Phase” value ([4]; complex medium, 30 µM) of the same compound?
Answer: 97,4%

Question: What about the “Lag Phase” value ([4]; minimal medium, 0.3 µM) of the same compound?
Answer: 91,7%

Question: What about the “Lag Phase” value ([4]; minimal medium, 3 µM) of the same compound?
Answer: 98,8%

Question: And the “Lag Phase” value ([4]; minimal medium, 30 µM)?
Answer: 94,1%
